From publication PMC8216263 (Pharmaceutical Biology, 2021)

How the values were obtained:
[1] = Stability of GA and PCA in quality control samples (biological matrix); assay type: physicochemical, human; settings: for Long-term Stability: 3 months at −80 °C; for Post-preparative Stability: 24 h at 4 °C, n = 3; for Bench-top Stability: 24 h at 25 °C
Procedure: The analytical method’s validation was conducted according to the FDA’s Bio-analytical Method Validation guidance (USFDA [2018]). Blank samples were obtained from six subjects for selectivity. The calibration curves were assessed by plotting the peak response ratio against the nominal concentrations of GA (1.00, 2.00, 10.0, 40.0, 100, 200, 320 and 400 μg/L) and PCA (0.50, 1.00, 5.00, 20.0, 50.0, 100, 160 and 200 μg/L). The low, medium and high QC concentrations were 3.00, 60.0 and 300 μg/L and 1.50, 30.0 and 150 μg/L for GA and PCA, respectively. Intra- and inter-day accuracy and precision were measured using six replicates of QCs in three separate batches. QCs’ acceptance criteria were ± 15% SD of nominal values, and the precision was ± 15% RSD, except for LLOQ ± 20% SD. The matrix effect and recovery were investigated using six lots of blank matrix from individual sources. Stability was assessed by spiking low and high QCs in blank samples using four conditions: for post-preparative stability (24 h at 4 °C), bench-top stability (24 h at 25 °C), long-term stability (3 months at −80 °C) and freeze-thaw stability (for three cycles).

OAT3 = target: T1, OAT3 (Homo sapiens, UniProt Q8TCC7); test: Inhibition of OAT3-mediated 3H-ES uptake in S2-OAT3 cells; assay type: cell-based; settings: GA 50–5000 μg/L, PCA 10–1000 μg/L
T1 construct: host or cells: S2 (second portion of proximal tubule) cells
T1 sequence (Q8TCC7 1-542): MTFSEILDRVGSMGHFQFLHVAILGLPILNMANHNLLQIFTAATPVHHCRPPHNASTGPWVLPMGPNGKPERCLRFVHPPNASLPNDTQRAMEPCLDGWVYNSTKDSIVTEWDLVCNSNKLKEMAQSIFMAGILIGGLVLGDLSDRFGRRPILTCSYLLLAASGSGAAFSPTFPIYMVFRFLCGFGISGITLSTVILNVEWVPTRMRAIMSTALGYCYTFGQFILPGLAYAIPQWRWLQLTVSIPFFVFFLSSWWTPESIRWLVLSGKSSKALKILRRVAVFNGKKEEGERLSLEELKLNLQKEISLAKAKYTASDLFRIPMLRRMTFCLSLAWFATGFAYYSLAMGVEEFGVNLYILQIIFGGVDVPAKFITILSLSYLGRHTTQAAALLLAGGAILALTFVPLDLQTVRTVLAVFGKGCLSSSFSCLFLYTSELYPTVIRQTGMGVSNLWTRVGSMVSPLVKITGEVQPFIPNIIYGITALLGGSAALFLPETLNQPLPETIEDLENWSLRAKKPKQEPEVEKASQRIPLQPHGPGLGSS
Procedure: Cells were cultured in DMEM supplemented with 10% FBS, 100 units/mL penicillin and 100 units/mL streptomycin. […] Cell culture flasks, 24-well cell culture plates, and transwell polycarbonate inserts (12 mm diameter, 0.4 μm pore size) were purchased from Corning Co-star Corp. (Bedford, MA).
The MDCK-OAT1, S2-OAT3, S2-OCT2 and HEK293-OATP1B1 cell lines were utilized in this study. […] Briefly, S2-OAT3, S2-OCT2 and S2-mock cells were trypsinized and uniformly suspended in the culture medium’s designated volume to provide a density of 2.0 × 10^5 cells/mL. A 1.0-mL aliquot of the cell suspension was added into each well of 24-well insert plates. HEK293-OATP1B1, MDCK-OAT1 and their mock cells were seeded in 24-well plates at a density of 1.5 × 10^5 cells/well. […] Three washes terminated the experiment with ice-cold DPBS buffer after removing the incubation buffer. Cells were lysed with 400 μL of […] sodium hydroxide solution. The cell lysate and 3.0 mL of aquasol-2 scintillation fluid were put into a scintillation flask. […] The final concentration of DMSO in the assay was less than 0.1%. All experiments were performed in triplicate.

[2] = high QC (GA 300.0, PCA 150.0 μg/L)
[3] = low QC (GA 3.00, PCA 1.50 μg/L)

SMILES	Long-term Stability [1, 2] [%]	Long-term Stability [1, 3] [%]	Post-preparative Stability [1, 2] [%]	Post-preparative Stability [1, 3] [%]	Bench-top Stability [1, 2] [%]	Bench-top Stability [1, 3] [%]	Three freeze-thaw cycles Stability [1, 2] [%]	Three freeze-thaw cycles Stability [1, 3] [%]	inhibitory effect on OAT3 (OAT3)
O=C(O)c1cc(O)c(O)c(O)c1 [GA, gallic acid]	93.68	99.70	94.37	88.48	94.81	98.11	93.17	85.89	–
O=C(O)c1ccc(O)c(O)c1 [PCA, protocatechuic acid]	93.67	99.04	96.93	90.60	95.44	97.69	94.22	87.22	no significant inhibitory effect
